According to patent US20210253598A1, “ARYL ANNULATED MACROCYCLIC INDOLE DERIVATIVES” (priority 2017, published 2021):
pIC50: −log10 of the molar value. Where “and” joins values, the source holds several entries; their conditions need not be identical. Identical values can stand only once. Counter-ions that a name gives are not always drawn. Like-named read-outs stand apart in the source and are kept apart here.

Tests used:
BCL-XL = BCL-XL (Homo sapiens, UniProt Q07817); assay: Protein-protein interaction assay BCL-XL/Bad BH3 peptide, TR-FRET (BCL-XL assay, Assay 2); type: binding; settings: His-BCL-XL / Bad BH3 peptide, median
BCL-XL, sequence (Q07817 1-212): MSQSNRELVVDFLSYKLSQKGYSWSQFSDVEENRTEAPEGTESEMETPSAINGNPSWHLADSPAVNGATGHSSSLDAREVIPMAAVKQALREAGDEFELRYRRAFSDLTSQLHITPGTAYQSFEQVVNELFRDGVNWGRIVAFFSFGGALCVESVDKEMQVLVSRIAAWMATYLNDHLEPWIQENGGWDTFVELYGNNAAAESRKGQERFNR
Experimental: Protein-Protein Interaction Assay: BCL-XL/Bad BH3 Peptide (BCL-XL Assay)
The dose-dependent inhibition by the compounds described in this invention of the interaction between BCL-XL and the BH3 domain of Bad (both human) was determined using a steady state binding competition assay with time-resolved fluorescence energy transfer (TR-FRET) readout. For that purpose BCL-XL (amino acids 1-212, C-terminal fused to a hexahistidine (6×His) tag (SEQ ID 3) and a synthetic Bad BH3-derived peptide of sequence Biotin-PEG2-PEG2-[sequence]-Nle-[sequence]-amide (SEQ ID 4) served as protein receptor and tracer ligand respectively. The recombinant BCL-XL protein (expressed in E. coli) was purchased from BPS Bioscience (San Diego, Calif., USA). The Bad BH3-derived peptide can be obtained from e.g. Biosyntan (Berlin, Germany).
For that, 100-fold concentrated DMSO solutions were prepared by serial dilutions (1:3.4) of a 2 mM stock solution in a clear, 384-well microtiter plate (Greiner Bio-One, Frickenhausen, Germany). From there, 50 nl were transferred in a dark test plate (Greiner Bio-One, Frickenhausen, Germany). The assay was initiated by addition of 2 μl of a 2,5-fold concentrated His-BCL-XL solution (usually for a 1 nM end concentration in 5 μl reaction volume) in aqueous assay buffer [50 mM Tris/HCl pH 7, 100 mM sodium chloride (NaCl), 50 mM potassium fluoride (KF), 0.005% Tween-20, 2 mM DTT, 0.1% bovine gamma globulin (BGG)] to the compounds in the assay plate. This was followed by a 10-minute incubation step at 22° C. for pre-equilibration of the putative complex between His-BCL-XL and the compounds.
The mixture was incubated in the dark for one hour at 22° C. and then overnight at 4° C. The formation of BCL-XL/Bad complexes was determined by measuring the resonance energy transfer of the anti-His- Eu-cryptate antibody to the streptavidin-XL665 present in the reaction. For that purpose, the fluorescence emission at 620 nm and 665 nm after excitation at 330-350 nm was measured in a TR-FRET measuring instrument, for instance a Rubystar or a Pherastar (both from BMG Lab Technologies, Offenburg, Germany) or a Viewlux (Perkin-Elmer). The ratio of the emission at 665 nm and at 622 nm was used as indicator of the amount of BCL-XL/Bad complexes present.
The resulting data (ratio) were normalized, taking 0% inhibition as the mean value of control measurements (usually 32 data points) where all reagents were included. In this case 50 nl DMSO were used instead of compounds. […] IC50 values were determined by regression analysis based on a 4 parameter equation (minimum, maximum, IC50, Hill; Y=Max+(Min−Max)/(1+(X/IC50)^Hill) using the Screener Software (Genedata).

BCL-2 = BCL-2 (Homo sapiens, UniProt P10415); assay: Protein-protein interaction assay BCL-2/Bad BH3 peptide, TR-FRET (BCL-2 assay, Assay 3); type: binding; settings: His-BCL-2 / Bad BH3 peptide, median
BCL-2, sequence (P10415 1-211): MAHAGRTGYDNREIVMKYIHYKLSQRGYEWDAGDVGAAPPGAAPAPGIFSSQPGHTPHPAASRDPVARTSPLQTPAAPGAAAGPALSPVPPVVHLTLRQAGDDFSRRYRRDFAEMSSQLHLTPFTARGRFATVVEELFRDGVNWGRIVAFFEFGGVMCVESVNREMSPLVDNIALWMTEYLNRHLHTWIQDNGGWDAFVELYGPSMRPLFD

SUDHL5 [1] = assay: Induction of caspase-3/7 activity in SUDHL5 cells (Assay 4); type: cell-based
Summary of the method: (§1)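 Luminescent Caspase-Glo 3/7 read-out in SUDHL5 and SUDHL10 cells after 3 h compound exposure at 37 °C, followed by 1 h reagent incubation.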

SUDHL10 [2] = assay: Induction of caspase-3/7 activity in SUDHL10 cells (Assay 4); type: cell-based
Summary of the method: as §1

SUDHL5 [3] = assay: Induction of cytotoxicity in SUDHL5 cells, CellTiter-Glo (Assay 6); type: cell-based; settings: SUDHL5, 5 hours incubation, median, read-out: Cytotox SUDHL5 [M] (median)
Summary of the method: (§2)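 Run alongside apoptosis assays, this cytotoxicity measure used a 5-hour compound incubation at 37° C in humidified conditions, following overnight attachment. Cell viability was quantified by CellTiter-Glo luminescence.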

SUDHL10 [4] = assay: Induction of cytotoxicity in SUDHL10 cells, CellTiter-Glo (Assay 6); type: cell-based; settings: SUDHL10, 5 hours incubation, median, read-out: Cytotox SUDHL10 [M] (median)
Summary of the method: as §2

SUDHL5 [5] = assay: Anti-proliferative effect in SUDHL5 cells, CellTiter-Glo (Assay 7); type: cell-based
Summary of the method: (§3)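 72 h CTG viability assay, 37 °C, humidified. Time-zero plate as baseline; IC50 vs day 0 and DMSO controls.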

AMO-1 = assay: Anti-proliferative effect in AMO-1 cells, CellTiter-Glo (Assay 7); type: cell-based
Summary of the method: as §3

A2780 = assay: Anti-proliferative effect in A2780 cells, CellTiter-Glo (Assay 7); type: cell-based; settings: Homo sapiens, A2780, 72 h, several values per example; for pIC50: A2780, 72 hours incubation, CellTiter-Glo, read-out: Antiproli A2780; for IC50: read-out: Antiproli A2780 [M], A2780, 72 hours incubation, CellTiter-Glo
Summary of the method: as §3

MCL-1 = MCL-1 (Homo sapiens, UniProt Q07820, K194A/K197A/R201A); assay: Protein-protein interaction assay MCL-1/Noxa BH3 peptide, TR-FRET (MCL-1 assay, Assay 1); type: binding; settings: MCL-1 Assay [M] (median), MBP-MCL-1 / Noxa BH3 peptide
MCL-1, sequence (Q07820 173-321 K194A/K197A/R201A, looked up): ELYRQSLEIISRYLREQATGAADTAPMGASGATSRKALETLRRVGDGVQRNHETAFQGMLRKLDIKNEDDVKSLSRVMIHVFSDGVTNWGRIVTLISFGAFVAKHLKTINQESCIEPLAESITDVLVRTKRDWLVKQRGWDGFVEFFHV
Summary of the method: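 TR-FRET competition between compounds and a biotin-PEG Noxa BH3 tracer for 1 nM MBP-MCL-1 (residues 173-321). Incubation was 1 h at 22 °C in the dark, then overnight at 4 °C, in 50 mM Tris pH 7 buffer with KF and DTT, after a 10-min compound pre-equilibration. Normalized ratios were fitted with a 4-parameter Hill equation to give IC50.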

MV-4-11 = assay: Anti-proliferative effect in MV-4-11 cells, CellTiter-Glo (Assay 7); type: cell-based
Summary of the method: as §3

[6] = Homo sapiens, SU-DHL-5, 3 h, SUDHL5, 3 hours treatment, Caspase-Glo 3/7, median, read-out: Caspase SUDHL5 [M] (median)
[7] = Homo sapiens, SU-DHL10, 3 h, SUDHL10, 3 hours treatment, Caspase-Glo 3/7, median, read-out: Caspase SUDHL10 [M] (median)
[8] = Homo sapiens, SU-DHL-5, 72 h, SUDHL5, 72 hours incubation, CellTiter-Glo, median, read-out: Antiproli SUDHL5 [M] (median)
[9] = Homo sapiens, AMO1, 72 h, AMO-1, 72 hours incubation, CellTiter-Glo; several values per example; read-out: Antiproli AMO-1
[10] = Homo sapiens, MV4-11, 72 h, MV-4-11, 72 hours incubation, CellTiter-Glo; several values per example; read-out: Antiproli MV-4-11
[11] = MV-4-11, 72 hours incubation, CellTiter-Glo; several values per example; read-out: Antiproli MV-4-11
[12] = AMO-1, 72 hours incubation, CellTiter-Glo; several values per example; read-out: Antiproli AMO-1
[13] = read-out: Caspase SUDHL5 [M] (median), SUDHL5, 3 hours treatment, Caspase-Glo 3/7
[14] = read-out: Caspase SUDHL10 [M] (median), SUDHL10, 3 hours treatment, Caspase-Glo 3/7
[15] = read-out: Antiproli AMO-1; AMO-1, 72 hours incubation, CellTiter-Glo; several values per example
[16] = read-out: Antiproli SUDHL5 [M] (median), SUDHL5, 72 hours incubation, CellTiter-Glo

CCc1c2c(nn1C)COCc1ccccc1Cn1c(C(=O)O)c(CCCOc3cccc4c3CCCC4)c3ccc(F)c-2c31 (racemic) [Example 77, (rac)-14-Ethyl-15-fluoro-13-methyl-1-(3-((5,6,7,8-tetrahydronaphthalen-1-yl)oxy)propyl)-4,9,11,13-tetrahydrobenzo[3,4]pyrazolo[4′,3′:9,10][1]oxa[6]azacycloundecino[8,7,6-hi]indole-2-carboxylic Acid] was tested, and the IC50 (BCL-XL) was greater than 20 µM, the IC50 (BCL-2) was 12.6 µM and the EC50 (SUDHL5 [1]; [6]) was 2.4e-06 M. The EC50 (SUDHL10 [2]; [7]) was 8.4e-06 M, the IC50 (SUDHL5 [3]; Homo sapiens, SU-DHL-5, 5 h) was 3e-06 M and the IC50 (SUDHL10 [4]; Homo sapiens, SU-DHL10, 5 h) was 6.2e-06 M. The IC50 (SUDHL5 [5]; [8]) was 5.8e-06 M, the pIC50 (AMO-1; [9]) was 5.14 and the pIC50 (A2780) was 4.99.
Cc1nn(C)c2c1-c1c(F)ccc3c(CCCOc4cccc5ccccc45)c(C(=O)O)n(c13)Cc1ccccc1COC2 (racemic) [Example 80, (rac)-15-Fluoro-12,14-dimethyl-1-(3-(naphthalen-1-yloxy)propyl)-4,9,11,12-tetrahydrobenzo-[3,4]pyrazolo[4′,3′:9,10][1]oxa[6]azacycloundecino[8,7,6-hi]indole-2-carboxylic Acid] was tested, and the IC50 (MCL-1) was 7.6e-09 M, the IC50 (BCL-XL) was greater than 20 µM and the IC50 (BCL-2) was greater than 20 µM. For the same molecule, the EC50 (SUDHL5 [1]; [6]) was 5.2e-06 M, the EC50 (SUDHL10 [2]; [7]) was greater than 2.5e-05 M and the IC50 (SUDHL5 [3]; Homo sapiens, SU-DHL-5, 5 h) was 4.3e-06 M. For the same molecule, the IC50 (SUDHL10 [4]; Homo sapiens, SU-DHL10, 5 h) was greater than 1.1e-05 M, the IC50 (SUDHL5 [5]; [8]) was 7.7e-06 M and the pIC50 (AMO-1; [9]) was 4.59. It also gave a pIC50 (A2780) of 4.75.
CCc1nn(C)c2c1-c1c(F)ccc3c(CCCOc4cccc5c4CCC5)c(C(=O)O)n(c13)Cc1ccccc1COC2 (racemic) [Example 87, (rac)-1-(3-((2,3-Dihydro-1H-inden-4-yl)oxy)propyl)-14-ethyl-15-fluoro-12-methyl-4,9,11,12-tetrahydrobenzo[3,4]pyrazolo[4′,3′:9,10][1,6]oxaazacycloundecino[8,7,6-hi]indole-2-carboxylic Acid] showed an IC50 (MCL-1) of 4.5e-09 M, an IC50 (BCL-XL) greater than 20 µM and an IC50 (BCL-2) of 13.7 µM. It also gave an EC50 (SUDHL5 [1]; [6]) of 2.3e-06 M, an EC50 (SUDHL10 [2]; [7]) of 9.4e-06 M and an IC50 (SUDHL5 [3]; Homo sapiens, SU-DHL-5, 5 h) of 3.2e-06 M. For the same molecule, the IC50 (SUDHL10 [4]; Homo sapiens, SU-DHL10, 5 h) was 6e-06 M, the IC50 (SUDHL5 [5]; [8]) was 2.1e-06 M and the pIC50 (MV-4-11; [10]) was 4.91. The pIC50 (MV-4-11; [11]) was 5.16, the pIC50 (AMO-1; [12]) was 5.18 and the pIC50 (AMO-1; [9]) was 4.89.
CCc1nn(C)c2c1-c1c(F)ccc3c(CCCOc4cccc5ccccc45)c(C(=O)O)n(c13)Cc1ccccc1COC2 (racemic) [Example 91, (rac)-14-Ethyl-15-fluoro-12-methyl-1-(3-(naphthalen-1-yloxy)propyl)-4,9,11,12-tetrahydrobenzo[3,4]pyrazolo[4′,3′:9,10][1,6]oxaazacycloundecino[8,7,6-hi]indole-2-carboxylic Acid] gave an IC50 (MCL-1) of 8.6e-09 M, an IC50 (BCL-XL) greater than 20 µM and an IC50 (BCL-2) of no less than 20.5 µM. It also gave an EC50 (SUDHL5 [1]; [6]) of 2.8e-06 M, an EC50 (SUDHL10 [2]; [7]) of 1.2e-05 M and an IC50 (SUDHL5 [3]; Homo sapiens, SU-DHL-5, 5 h) of 3.2e-06 M. For the same molecule, the IC50 (SUDHL10 [4]; Homo sapiens, SU-DHL10, 5 h) was 7.5e-06 M, the IC50 (SUDHL5 [5]; [8]) was 3.6e-06 M and the pIC50 (MV-4-11; [10]) was 4.91. For the same molecule, the pIC50 (MV-4-11; [11]) was 4.93, the pIC50 (AMO-1; [12]) was 4.82 and the pIC50 (AMO-1; [9]) was 4.73.
In the case of Cc1c2c(nn1C)CN(C)Cc1ccccc1Cn1c(C(=O)O)c(CCCOc3cccc4ccccc34)c3cccc-2c31 (single isomer, unassigned; enantiomer 1) [Example 15, 4,5,8-Trimethyl-17-[3-(naphthalen-1-yloxy)propyl]-7,8,9,14-tetrahydro-5H-indolo[1,7-bc]-pyrazolo[4,3-e][2,8]benzodiazacycloundecine-16-carboxylic acid-N-ethylethanamine Salt (Enantiomer 1)], the IC50 (MCL-1) was 6.9e-09 M, the IC50 (BCL-XL) was greater than 20 µM and the IC50 (BCL-2) was greater than 20 µM. The EC50 (SUDHL5 [1]; [13]) was 2.6e-06 M, the EC50 (SUDHL10 [2]; [14]) was 1.2e-05 M and the IC50 (SUDHL5 [3]) was 3.3e-06 M. For the same molecule, the IC50 (SUDHL10 [4]) was 1.1e-05 M, the IC50 (SUDHL5 [5]; Homo sapiens, SU-DHL-5, 72 h, read-out: Antiproli SUDHL5 [M] (median), SUDHL5, 72 hours incubation, CellTiter-Glo) was 2.8e-06 M and the pIC50 (AMO-1; [15]) was 5.20 and 5.25. The IC50 (A2780) was greater than 3.3e-05 M.
With Cc1c2c(nn1C)COCc1cccnc1Cn1c(C(=O)O)c(CCCOc3cccc4ccccc34)c3ccc(Cl)c-2c31 (single isomer, unassigned; enantiomer 1) [Example 40, 3-Chloro-4,5-dimethyl-17-[3-(naphthalen-1-yloxy)propyl]-5,7,9,14-tetrahydropyrazolo-[4′,3′:9,10]pyrido[3′,2′:3,4][1,6]oxazacycloundecino[8,7,6-hi]indole-16-carboxylic acid-N-ethylethanamine Salt (Enantiomer 1)] the IC50 (BCL-XL) was 19.4 µM, the IC50 (BCL-2) was greater than 20 µM and the EC50 (SUDHL5 [1]; [13]) was 2.5e-06 M. For the same molecule, the EC50 (SUDHL10 [2]; Homo sapiens, SU-DHL10, 3 h, read-out: Caspase SUDHL10 [M] (median), SUDHL10, 3 hours treatment, Caspase-Glo 3/7) was 1.4e-05 M, the IC50 (SUDHL5 [3]; Homo sapiens, SU-DHL-5, 5 h) was 3.3e-06 M and the IC50 (SUDHL10 [4]; Homo sapiens, SU-DHL10, 5 h) was 8.3e-06 M. It also gave an IC50 (SUDHL5 [5]; [16]) of 2.2e-06 M, an IC50 (AMO-1; Homo sapiens, AMO1, 72 h, read-out: Antiproli AMO-1 [M], AMO-1, 72 hours incubation, CellTiter-Glo; several values per example) of 7.53e-06 M and a pIC50 (AMO-1; [15]) of 5.04. It also gave an IC50 (A2780) of 2.19e-05 M.
With CCc1c2c(nn1C)COCc1ccccc1Cn1c(C(=O)O)c(CCCOc3cccc4ccccc34)c3ccc(F)c-2c31 (single isomer, unassigned; enantiomer 1) [Example 71, (−)-4-Ethyl-3-fluoro-5-methyl-17-{3-[(naphthalen-1-yl)oxy]propyl}-5,7,9,14-tetrahydroindolo[7,1-fg]pyrazolo[3,4-d][2,8]benzoxazacycloundecine-16-carboxylic acid-N-ethylethanamine Salt (Enantiomer 1)] the IC50 (MCL-1) was 1.2e-09 M, the IC50 (BCL-XL) was greater than 20 µM and the IC50 (BCL-2) was 12.8 µM. For the same molecule, the EC50 (SUDHL5 [1]; [13]) was 1.6e-06 M, the EC50 (SUDHL10 [2]; [14]) was 4e-06 M and the IC50 (SUDHL5 [3]) was 1.9e-06 M. For the same molecule, the IC50 (SUDHL10 [4]) was 3.6e-06 M, the IC50 (SUDHL5 [5]; [16]) was 2.5e-06 M and the IC50 (MV-4-11; Homo sapiens, MV4-11, 72 h, read-out: Antiproli MV-4-11 [M], MV-4-11, 72 hours incubation, CellTiter-Glo; several values per example) was 4.81e-06 M. The pIC50 (AMO-1; [15]) was 5.46 and the IC50 (A2780) was 9.41e-06 M.
Work on CCc1c2c(nn1C)COCc1ccccc1Cn1c(C(=O)O)c(CCCOc3cccc4cc(F)ccc34)c3ccc(F)c-2c31 (single isomer, unassigned; enantiomer 1) [Example 74, (−)-4-Ethyl-3-fluoro-17-{3-[(6-fluoronaphthalen-1-yl)oxy]propyl}-5-methyl-5,7,9,14-tetrahydroindolo[7,1-fg]pyrazolo[3,4-d][2,8]benzoxazacycloundecine-16-carboxylic acid-N-ethylethanamine Salt (Enantiomer 1)] yielded an IC50 (MCL-1) of 9.2e-10 M, an IC50 (BCL-XL) greater than 20 µM and an IC50 (BCL-2) of 19.8 µM. For the same molecule, the EC50 (SUDHL5 [1]; [13]) was 8.2e-07 M, the EC50 (SUDHL10 [2]; [14]) was 1.2e-06 M and the IC50 (SUDHL5 [3]) was 1.1e-06 M. For the same molecule, the IC50 (SUDHL10 [4]) was 1.4e-06 M, the IC50 (SUDHL5 [5]; [16]) was 1.3e-06 M and the pIC50 (MV-4-11; read-out: Antiproli MV-4-11; MV-4-11, 72 hours incubation, CellTiter-Glo; several values per example) was 5.44. It also gave a pIC50 (AMO-1; [15]) of 5.75.
